Data from patent US20070112026A1, “Carbostyril derivatives for accelerating salivation” (priority 2003, published 2007).

Experiments:
[1] = test system: patient with Sjögren's syndrome; assay: Patient record: earlier treatments of the same Sjögren's syndrome patient; type: in vivo, human; settings: earlier treatment of the patient of Experiment 4
Method: Around February 1999, the patient visited a hospital in view of dryness of mouth and difficulty in tearing. Then, they were diagnosed to have Sjögren's syndrome in view of antinuclear antibody: 160 times, anti-SSR-A antibody: 126 times, Gum test: 8 ml, lowered function of salivary gland, ophthalmic Silmer test (right 4 mm, left 3 mm), dry kerato-conjunctivitis. […] Besides, Salivate spray was also applied but it was not effective and discontinued. After moving their home because of marriage, their hospital was change on May 1, 2003. Before the changing the hospital, an ophthalmic drop containing chondroitin sulfate has frequently been used for treating dry conjunctivitis.

[2] = test system: patients with Sjögren's syndrome; assay: Effects on xerostomia in patients with Sjögren's syndrome (subjective symptom scores, Saxon Test, overall evaluation); type: in vivo, human; settings: for Salivation amount (Saxon test) / Total scores of subjective symptoms: 100 mg tablet orally three times per day, 21 patients; for Salivation amount (Saxon test): 1.29±1.00 g before administration; for Total scores of subjective symptoms: 9.6±4.1 before administration; for Overall evaluation: "Effective" / Overall evaluation: "Non-effective" / Overall evaluation: "Remarkably effective": of 21 patients
Method: The effects of the present active compound on xerostomia in patients with Sjögren's syndrome was tested. The test was carried out for 21 patients (age: 27 to 85 years old, all female) who were diagnosed as surely having Sjögren's syndrome on the basis of Revised Diagnosis Standard for Sjögren's syndrome (issued by Ministry of Health, Labour and Welfare in Japan in 1999). Tablet containing 2-(4-chlorobenzoylamino)-3-(2-quinolon-4-yl)propionic acid (100 mg per tablet) was orally administered three times per day immediately after a meal (one tablet for each time) for 8 weeks. i) Evaluation by patients themselves as to subjective symptoms (e.g. feeling of dryness of the mouth, hydromania, pain in the mouth, taste disorder, difficulty in dietary intake, abnormality of saliva) before administration of tablet, after administration of tablet for 4 weeks and 8 weeks, respectively. […] Based on the salivation amount thus measured, the increasing rate of salivation was determined by the following equation: [formula] The effects of the test compound were evaluated based on both of the improvement of subjective symptoms and the salivation amount, which was classified in three degrees as follows. “Remarkably effective: Both of the improved rate of subjective symptoms and the increasing rate of salivation being more than 50%; “Effective”: Either of the improved rate of subjective symptoms or the increasing rate of salivation being more than 50%; “Non-effective”: Neither the improvement of subjective symptoms nor the increasing of salivation being observed. The experimental results were statistically evaluated in accordance with Wilcoxon's rank test.

anesthetized rats = assay: Salivation amount in anesthetized rats after intravenous administration; type: in vivo; settings: for Salivation amount: over 20 minutes, average ± standard error; for Salivation amount, comparison with the vehicle-treated group: vehicle = 100
Method: The effects of the present active compound on salivation in anesthetized rats were studied as mentioned below. Models for studying salivation were prepared according to the method of Masunaga, et al. (Masunaga, H., et al., Long-lasting salivation induced by a novel Muscarinic receptor agonist SNI-201 in rats and dogs. Eur. J. Pharmacol., 339: 1-9, 1997). Namely, rats had been fasted from the day before the experiment except that the intake of water was freely allowed, and the rats were anesthetized with Nembutal (=pentobarbital sodium). The rats were put down on the back, and the neck was subjected to midline incision. An ATOM anionic fluid suction catheter of 6Fr. was inserted to the air tube in order to keep the airway clear. Next, a polyethylene tube (SP55 Natsume) containing a solution of 10 U/ml heparin in physiological saline was inserted into the […] for administration of a medicament. A 0.03 mg/ml or 0.1 mg/ml solution of the test compound (2-(4-Chlorobenzoylamino)-3-(2-quinolon-4-yl)-propionic acid; general name: Rebamipide) in 2% aqueous sodium hydrogen carbonate solution, and a vehicle (2% aqueous sodium hydrogen carbonate solution) as a control solution were used, and the test compound solution and the control solution in an amount of 1 mL/kg were respectively administered intravenously via the polyethylene tube inserted into the […]. Then, the salivation amount was measured every 10 minutes for 20 minutes with using cotton swabs, and the salivation amount per one minute was calculated from the total salivation amount for this period. In this measurement, the salivation amount was measured in such a way that the dried cotton swab (the weight thereof was previously measured) was inserted into the mouth of rat, and the swab was exchanged with a new dried one in every ten minutes, and the total salivation amount was calculated from the difference in the weight of the swab between before and after inserting into the mouth. The average salivation amount was calculated as measured in the vehicle-treated group (5 animals), the test compound (0.03 mg/kg)-treated group (5 animals) and the test compound (0.1 mg/kg)-treated group (4 animals), and the percentage of the average salivation amount in the test compound-treated groups against that of the vehicle-treated group was calculated.

[3] = test system: patient suffering from mouth dryness accompanying Sjögren's syndrome; assay: Case of a patient suffering from mouth dryness accompanying Sjögren's syndrome (Saxon test); type: in vivo, human; settings: for Subjective symptoms: 300 mg/day started May 29, 2003; for Salivation amount (Saxon test): 300 mg/day started May 29, 2003 (0.89 g at start), one patient
Source text: Effects of the present compound 2-(4-chlorobenzoyl-amino}-3-(2-quinolon-4-yl)propionic acid on a patient suffering from mouth dryness accompanying Sjögren's syndrome:
(1) Patient: A person.
(2) Chief Complaint: Cotton Mouth, Mattering of Eyes.
The symptoms of the mouth dryness were significant dry of toungue and significant lowering of salivaition (0.52 g in Saxon test). No swelling of parotid gland. Eye dryness was Silmer test (right 2 mm, left 1 mm), Rose bengal test (3+). No inflammation of the eye. Examination findings were ESR 17 mm/hr., WBC 5500/μL, RBC 484×10^4/μL, Hgb 13.4 g/dL, T.P. 8.4 g/dL, Alb 4.4 g/dL, AST 17 IU/mL, ALT 9 IU/mL, Amylase 140 IU/L, CK 46 IU/L, Cr 0.69 mg/dL, BUN 14.0 mg/dL, CRP<0.3 mg/dL, ANA 640 folds (speckled pattern), anti-SS-A antibody 126 times, Anti-SS-B antibody, negative, IgG 2270 mg/dL, IgA 368 mg/dL, IgM 132 mg/dL, and immune complex, Ciq solid-phase method, 3.3 (positive). (5) Clinical Course:
Administration of 2-(4-chloro-benzoylamino)-3-(2-quinolon-4-yl)propionic acid (300 mg/day)was started on May 29, 2003. […] 25, 2003 and then the subjective symptoms were improved. The salivation amount more increased to 1.86 g on Jul. 23, 2003 and then the subjective symptoms were also more improved.

non-anesthetized rats = assay: Salivation amount in non-anesthetized rats after intragastric administration (esophagus diverticulum collection); type: in vivo; settings: saliva collected for 4 hours, average ± standard error
Method: The effects of the present active compound by intragastric administration in non-anesthetized rats with respect to the salivation were studied as mentioned below. Using non-anesthetized rats, the saliva being swallowed for 4 hours on awaking into the diverticulum placed at the esophagus was collected and the salivation amount (g) was measured. Vehicle (0.5% sodium carboxymethyl cellulose solution) or Rebamipide 10, 30 or 100 mg/kg was intragastrically administered once when the esophagus diverticulum was set, and as a result, the average ± standard error of the salivation amount was 0.88±0.23 g (n=7) in the vehicle-treated group, 0.99±0.21 g (n=8) in the Rebamipide (10 mg/kg)-treated group, 1.37±0.26 g (n=7) in the Rebamipide (30 mg/kg)-treated group, and 1.72±0.40 g (n=8) in the Rebamipide (100 mg/kg)-treated group.

Structure (SMILES): C[C@@H]1O[C@@]2(CS1)CN1CCC2CC1.Cl [Sebimerine hydrochloride]
- Side effects leading to stop of administration [1]: abdominal discomfort and stomach ache

Structure (SMILES): O=C(NC(Cc1cc(=O)[nH]c2ccccc12)C(=O)O)c1ccc(Cl)cc1 (centres unmarked) [Rebamipide, 2-(4-Chlorobenzoylamino)-3-(2-quinolon-4-yl)-propionic acid]
- Effectiveness ([2]; after 4 weeks): 52.4%
- Salivation amount (Saxon test) ([2]; after 4 weeks): 1.95 ± 1.21 g
- Total scores of subjective symptoms ([2]; after 4 weeks): 6.6±3.2
- Overall evaluation: "Effective" ([2]; after 4 weeks): 9 patients
- Overall evaluation: "Non-effective" ([2]; after 4 weeks): 10 patients
- Overall evaluation: "Remarkably effective" ([2]; after 4 weeks): 2 patients
- Effectiveness ([2]; after 8 weeks): 61.9%
- Salivation amount (Saxon test) ([2]; after 8 weeks): 1.93 ± 1.14 g
- Total scores of subjective symptoms ([2]; after 8 weeks): 5.2±2.6
- Overall evaluation: "Effective" ([2]; after 8 weeks): 7 patients
- Overall evaluation: "Non-effective" ([2]; after 8 weeks): 8 patients
- Overall evaluation: "Remarkably effective" ([2]; after 8 weeks): 6 patients
- Salivation amount (anesthetized rats; 0.03 mg/kg intravenous, n=5, listed as Test compound): 0.262 ± 0.084 mg/min
- Salivation amount (anesthetized rats; 0.03 mg/kg intravenous, n=5, listed as test compound): 0.262 ± 0.084 mg/min
- Salivation amount, comparison with the vehicle-treated group (anesthetized rats; 0.03 mg/kg intravenous): 205%
- Salivation amount (anesthetized rats; 0.1 mg/kg intravenous, n=4, listed as Test compound): 0.305 ± 0.097 mg/min
- Salivation amount (anesthetized rats; 0.1 mg/kg intravenous, n=4, listed as test compound): 0.305 ± 0.097 mg/min
- Salivation amount, comparison with the vehicle-treated group (anesthetized rats; 0.1 mg/kg intravenous): 239%
- Subjective symptoms ([3]; Jul. 23, 2003): more improved
- Salivation amount (Saxon test) ([3]; Jul. 23, 2003): 1.86 g
- Subjective symptoms ([3]; Jun. 25, 2003): improved
- Salivation amount (Saxon test) ([3]; Jun. 25, 2003): 1.55 g
- Salivation amount (non-anesthetized rats; 10 mg/kg intragastric once, n=8): 0.99 ± 0.21 g
- Salivation amount (non-anesthetized rats; 30 mg/kg intragastric once, n=7): 1.37 ± 0.26 g
- Salivation amount (non-anesthetized rats; 100 mg/kg intragastric once, n=8): 1.72 ± 0.40 g
